Results as given in ChEMBL document CHEMBL1201862, “PubChem BioAssay data set” (2004).
The source made the active and inactive calls.

Experiments:
[1] = target: T1, Small ubiquitin-related modifier 1 (Homo sapiens, UniProt P63165); assay: inhibitors of SUMO1 partner interactions, dose response, biochemical, FRET (AID 624383); format: functional; conditions: read-out: IC50_Mean
[2] = target: T1, Small ubiquitin-related modifier 1; assay: inhibitors of SUMO1 peptide binding, dose response, biochemical, fluorescence polarization, uHTS hits (AID 624382); format: functional; conditions: read-out: IC50_Mean
[3] = Luminescence Cell-Based Dose Response HTS to Identify Inhibitors of 5'UTR Stem-Loop Driven Prion Protein mRNA Translation in H4 Neuroglioblastoma Cells. [Related pubchem assays: 1827 (Project Summary), 1813 (Primary HTS)]; format: functional
Mu-type opioid receptor = Mu-type opioid receptor (Homo sapiens, UniProt P35372); format: functional, cell-based;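 note: U2OS cells with beta-arrestin recruitment to OPRM1 by beta-gal complementation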
[4] = inhibitors of SNCA 5'UTR-driven reporter translation, confirmation, H4 neuroglioma cells, luminescence (AID 1988); format: functional, cell-based
[5] = target: 5-hydroxytryptamine receptor 2A (Mus musculus, UniProt P35363); format: functional, cell-based;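 note: CHO-K1 cells with tagged receptor and beta-arrestin; agonist potency measured as compound-induced activation of the receptor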
[6] = inhibitors of firefly luciferase expression or activity, dose response, H4 neuroglioma cells, luminescence (AID 1990); format: functional, cell-based
[7] = test system: Streptococcus sp. 'group A'; assay: growth inhibition of control SK(-) GAS strain, dose response, counter-screen for streptokinase expression inhibitor project, luminescence, kanamycin, BacTiterGlo, confirmation (AID 1900); format: functional, organism-based
[8] = target: T2, Type-1 angiotensin II receptor (Homo sapiens, UniProt P30556); assay: AT1 receptor antagonists, dose response, selectivity assay for APJ receptor antagonist project, cell-based, uHTS hits (AID 463214); format: functional;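 note: antagonist potency against angiotensin II stimulated AT1 response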
T2 sequence (P30556 whole entry): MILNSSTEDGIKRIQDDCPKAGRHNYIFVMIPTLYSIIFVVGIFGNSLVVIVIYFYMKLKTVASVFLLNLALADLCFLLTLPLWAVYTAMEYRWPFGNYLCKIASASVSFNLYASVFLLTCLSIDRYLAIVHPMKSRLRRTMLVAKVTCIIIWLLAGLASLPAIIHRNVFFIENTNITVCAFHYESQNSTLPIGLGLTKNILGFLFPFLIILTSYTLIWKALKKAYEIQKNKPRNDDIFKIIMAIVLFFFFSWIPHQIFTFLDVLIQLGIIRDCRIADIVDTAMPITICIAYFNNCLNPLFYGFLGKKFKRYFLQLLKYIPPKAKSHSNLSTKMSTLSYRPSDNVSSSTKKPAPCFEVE

Streptokinase A = target: T3, Streptokinase A (Streptococcus pyogenes serotype M1, UniProt P10520); assay: S. pyogenes streptokinase expression inhibitors, potency, dose response, plasminogen activation absorbance, OD405 (AID 1914); format: functional, Streptococcus pyogenes M1 GAS;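 note: secreted streptokinase activity via plasminogen activation per viability signal from cell pellet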
T3 sequence (P10520 whole entry): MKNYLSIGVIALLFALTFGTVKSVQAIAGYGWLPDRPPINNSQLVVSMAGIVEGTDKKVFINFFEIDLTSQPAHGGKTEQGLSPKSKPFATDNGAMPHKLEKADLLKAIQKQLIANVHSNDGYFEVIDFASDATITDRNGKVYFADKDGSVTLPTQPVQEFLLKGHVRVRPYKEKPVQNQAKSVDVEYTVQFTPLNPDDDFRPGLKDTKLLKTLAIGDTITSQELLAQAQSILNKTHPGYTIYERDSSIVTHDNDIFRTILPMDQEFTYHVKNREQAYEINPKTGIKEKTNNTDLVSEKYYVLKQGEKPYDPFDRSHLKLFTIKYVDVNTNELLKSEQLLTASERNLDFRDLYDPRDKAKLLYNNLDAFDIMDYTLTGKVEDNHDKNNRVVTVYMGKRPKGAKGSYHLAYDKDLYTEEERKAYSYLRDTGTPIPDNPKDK

Beta-galactosidase = Beta-galactosidase (Escherichia coli, UniProt Q8VNN2); assay: PubChem AID 485352; format: functional
Streptococcus = assay: Group A Streptococcus viability loss, dose response, counter-screen for streptokinase expression inhibitor project, luminescence, BacTiterGlo (AID 1915); format: functional, organism-based;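 note: potency for reduction of bacterial viability or growth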
[9] = target: T4, Adenosylmethionine-8-amino-7-oxononanoate aminotransferase (Mycobacterium tuberculosis, UniProt P9WQ81); assay: Mycobacterium tuberculosis BioA enzyme inhibitor Measured in Biochemical System Using Plate Reader - 2163-02_Inhibitor_Dose_CherryPick_Activity.; format: functional, Mycobacterium tuberculosis UT205
T4 sequence (P9WQ81 whole entry): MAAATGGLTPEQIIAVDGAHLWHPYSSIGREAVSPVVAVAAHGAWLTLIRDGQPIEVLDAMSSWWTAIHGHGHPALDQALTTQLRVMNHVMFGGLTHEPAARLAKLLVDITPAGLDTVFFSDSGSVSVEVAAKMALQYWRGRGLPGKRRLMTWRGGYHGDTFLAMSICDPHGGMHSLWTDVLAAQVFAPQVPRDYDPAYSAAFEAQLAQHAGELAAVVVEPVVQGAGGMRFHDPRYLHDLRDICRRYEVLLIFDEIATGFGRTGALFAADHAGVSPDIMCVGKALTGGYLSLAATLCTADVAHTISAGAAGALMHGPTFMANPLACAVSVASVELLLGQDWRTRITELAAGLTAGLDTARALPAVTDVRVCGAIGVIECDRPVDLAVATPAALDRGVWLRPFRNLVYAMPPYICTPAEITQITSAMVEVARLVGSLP

[10] = target: Glucose-6-phosphate 1-dehydrogenase (Homo sapiens, UniProt P11413); assay: human G6PD enzyme inhibitors, dose response, selectivity assay for P. falciparum G6PD inhibitor project, biochemical, fluorescence (AID 504792); format: functional
Large T antigen = Large T antigen (Simian virus 40, UniProt P03070); format: functional, Betapolyomavirus macacae;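 note: Confirmatory-stage PubChem screen for compounds that inhibit SV40 T antigen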
[11] = target: T5, Replicative DNA helicase DnaB (Mycobacterium tuberculosis, UniProt P9WMR3); assay: DnaB intein splicing inhibitors, dose response, biochemical, cell-free fluorescence (AID 449749); format: functional
T5 sequence (P9WMR3 whole entry): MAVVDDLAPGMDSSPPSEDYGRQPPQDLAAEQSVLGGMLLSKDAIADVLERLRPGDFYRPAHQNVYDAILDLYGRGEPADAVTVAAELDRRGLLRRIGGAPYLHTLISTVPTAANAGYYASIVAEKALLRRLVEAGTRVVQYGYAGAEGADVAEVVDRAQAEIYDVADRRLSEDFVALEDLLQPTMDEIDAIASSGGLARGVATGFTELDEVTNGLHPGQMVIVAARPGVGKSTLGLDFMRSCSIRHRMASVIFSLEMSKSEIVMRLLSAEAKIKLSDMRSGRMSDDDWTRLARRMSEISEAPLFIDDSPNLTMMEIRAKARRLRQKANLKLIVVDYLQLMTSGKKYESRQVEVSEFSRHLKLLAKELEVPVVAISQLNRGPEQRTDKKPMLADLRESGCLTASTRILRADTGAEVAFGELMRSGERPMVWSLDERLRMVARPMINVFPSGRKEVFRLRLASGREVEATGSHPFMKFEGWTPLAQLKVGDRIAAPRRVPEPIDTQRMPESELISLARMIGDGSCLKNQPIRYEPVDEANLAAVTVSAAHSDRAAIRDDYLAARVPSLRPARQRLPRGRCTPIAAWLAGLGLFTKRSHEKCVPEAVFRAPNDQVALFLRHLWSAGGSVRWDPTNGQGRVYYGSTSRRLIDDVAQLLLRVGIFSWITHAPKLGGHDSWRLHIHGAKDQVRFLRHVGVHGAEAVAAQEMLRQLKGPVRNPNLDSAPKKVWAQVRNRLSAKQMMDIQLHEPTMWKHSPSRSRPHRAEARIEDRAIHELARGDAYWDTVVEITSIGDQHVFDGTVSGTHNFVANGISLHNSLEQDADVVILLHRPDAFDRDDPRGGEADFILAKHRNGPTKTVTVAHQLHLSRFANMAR

Protein RecA = target: T6, Protein RecA (Mycobacterium tuberculosis, UniProt P9WHJ3); assay: Fluorescence Cell-Free Homogeneous Dose Retest to Identify Inhibitors of RecA-Intein Splicing Activity. [Related pubchem assays (depositor defined):AID2097, AID2223, AID489010, AID492950]; format: functional
T6 sequence (P9WHJ3 whole entry): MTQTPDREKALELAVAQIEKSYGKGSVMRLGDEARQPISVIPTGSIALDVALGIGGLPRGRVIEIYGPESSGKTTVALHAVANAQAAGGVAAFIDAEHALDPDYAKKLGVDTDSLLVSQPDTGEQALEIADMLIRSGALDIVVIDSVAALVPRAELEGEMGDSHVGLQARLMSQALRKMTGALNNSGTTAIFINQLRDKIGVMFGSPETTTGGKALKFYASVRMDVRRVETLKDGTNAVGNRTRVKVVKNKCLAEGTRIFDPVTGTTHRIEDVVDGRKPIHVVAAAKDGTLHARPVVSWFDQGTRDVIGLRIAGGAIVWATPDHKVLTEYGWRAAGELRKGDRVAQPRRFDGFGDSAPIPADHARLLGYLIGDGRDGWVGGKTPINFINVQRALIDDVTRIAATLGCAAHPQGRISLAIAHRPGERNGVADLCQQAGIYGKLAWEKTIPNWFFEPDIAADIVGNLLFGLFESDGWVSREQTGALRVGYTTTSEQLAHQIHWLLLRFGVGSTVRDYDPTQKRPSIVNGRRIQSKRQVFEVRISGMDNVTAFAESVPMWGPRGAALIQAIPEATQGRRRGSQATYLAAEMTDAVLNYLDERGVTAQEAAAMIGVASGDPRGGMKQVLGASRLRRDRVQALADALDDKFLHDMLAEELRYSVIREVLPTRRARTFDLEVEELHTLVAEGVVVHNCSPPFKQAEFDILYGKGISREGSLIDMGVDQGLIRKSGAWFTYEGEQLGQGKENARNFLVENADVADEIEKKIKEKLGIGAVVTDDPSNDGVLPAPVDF

T1 sequence (P63165 whole entry): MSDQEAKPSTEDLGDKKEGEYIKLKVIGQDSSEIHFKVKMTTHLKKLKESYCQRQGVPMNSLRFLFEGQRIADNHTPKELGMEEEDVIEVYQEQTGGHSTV
Sequence of Large T antigen (P03070 whole entry): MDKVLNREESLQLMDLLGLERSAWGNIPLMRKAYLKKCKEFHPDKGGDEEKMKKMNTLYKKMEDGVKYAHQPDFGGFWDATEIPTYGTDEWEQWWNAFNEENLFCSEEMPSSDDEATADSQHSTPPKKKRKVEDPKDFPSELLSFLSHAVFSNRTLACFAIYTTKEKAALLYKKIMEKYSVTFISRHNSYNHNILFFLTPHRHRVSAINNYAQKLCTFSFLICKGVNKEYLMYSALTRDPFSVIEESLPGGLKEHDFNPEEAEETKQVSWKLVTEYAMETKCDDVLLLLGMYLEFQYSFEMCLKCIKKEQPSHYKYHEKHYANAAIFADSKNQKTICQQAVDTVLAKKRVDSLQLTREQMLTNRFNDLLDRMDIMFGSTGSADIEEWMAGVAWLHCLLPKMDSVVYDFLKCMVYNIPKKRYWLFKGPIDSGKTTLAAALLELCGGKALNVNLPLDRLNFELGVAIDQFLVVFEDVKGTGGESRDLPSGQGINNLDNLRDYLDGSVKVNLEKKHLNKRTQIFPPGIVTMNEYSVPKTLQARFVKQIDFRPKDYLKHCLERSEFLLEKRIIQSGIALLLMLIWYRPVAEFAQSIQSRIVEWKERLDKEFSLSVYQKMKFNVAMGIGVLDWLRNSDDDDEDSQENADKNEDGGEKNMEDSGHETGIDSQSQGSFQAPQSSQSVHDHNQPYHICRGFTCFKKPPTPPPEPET
Sequence of 5-hydroxytryptamine receptor 2A (P35363 whole entry): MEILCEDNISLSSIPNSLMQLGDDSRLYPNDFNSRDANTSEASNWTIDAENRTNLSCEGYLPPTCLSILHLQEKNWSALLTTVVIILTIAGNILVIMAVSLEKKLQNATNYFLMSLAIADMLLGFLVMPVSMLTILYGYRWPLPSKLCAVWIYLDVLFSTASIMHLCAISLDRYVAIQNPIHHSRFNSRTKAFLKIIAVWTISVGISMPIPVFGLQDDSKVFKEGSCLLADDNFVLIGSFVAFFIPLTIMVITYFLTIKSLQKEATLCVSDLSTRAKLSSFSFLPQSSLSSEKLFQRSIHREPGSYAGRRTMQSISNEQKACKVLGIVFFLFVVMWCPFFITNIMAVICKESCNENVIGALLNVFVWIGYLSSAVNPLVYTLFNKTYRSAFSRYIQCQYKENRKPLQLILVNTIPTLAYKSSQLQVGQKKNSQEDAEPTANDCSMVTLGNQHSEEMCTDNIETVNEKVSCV
Sequence of Beta-galactosidase (Q8VNN2 whole entry): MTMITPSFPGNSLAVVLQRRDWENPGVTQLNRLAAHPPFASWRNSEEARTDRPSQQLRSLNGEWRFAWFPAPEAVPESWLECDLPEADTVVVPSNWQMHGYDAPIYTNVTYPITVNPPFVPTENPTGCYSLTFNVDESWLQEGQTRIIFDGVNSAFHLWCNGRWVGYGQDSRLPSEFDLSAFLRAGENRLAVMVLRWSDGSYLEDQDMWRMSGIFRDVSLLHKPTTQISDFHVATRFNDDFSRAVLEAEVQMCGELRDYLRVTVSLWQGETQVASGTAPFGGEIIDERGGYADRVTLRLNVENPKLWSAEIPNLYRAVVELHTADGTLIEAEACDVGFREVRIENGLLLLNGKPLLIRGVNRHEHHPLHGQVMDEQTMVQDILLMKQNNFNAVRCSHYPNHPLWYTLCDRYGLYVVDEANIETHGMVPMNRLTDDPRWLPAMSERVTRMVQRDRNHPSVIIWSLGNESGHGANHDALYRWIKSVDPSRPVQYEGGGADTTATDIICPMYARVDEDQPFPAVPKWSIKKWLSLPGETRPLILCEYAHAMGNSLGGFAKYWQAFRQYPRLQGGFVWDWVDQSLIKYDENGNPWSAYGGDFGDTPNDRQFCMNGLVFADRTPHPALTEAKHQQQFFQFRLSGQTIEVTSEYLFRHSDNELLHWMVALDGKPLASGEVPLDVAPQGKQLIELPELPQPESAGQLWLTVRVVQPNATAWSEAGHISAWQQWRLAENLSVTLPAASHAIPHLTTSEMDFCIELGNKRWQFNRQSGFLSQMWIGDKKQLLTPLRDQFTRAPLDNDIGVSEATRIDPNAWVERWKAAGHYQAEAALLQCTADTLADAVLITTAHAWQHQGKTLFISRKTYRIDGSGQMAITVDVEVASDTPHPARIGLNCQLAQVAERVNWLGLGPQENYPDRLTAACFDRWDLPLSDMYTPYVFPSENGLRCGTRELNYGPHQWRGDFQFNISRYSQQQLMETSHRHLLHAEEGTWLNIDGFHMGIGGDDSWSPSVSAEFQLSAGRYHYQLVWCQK
Sequence of Mu-type opioid receptor (P35372 whole entry): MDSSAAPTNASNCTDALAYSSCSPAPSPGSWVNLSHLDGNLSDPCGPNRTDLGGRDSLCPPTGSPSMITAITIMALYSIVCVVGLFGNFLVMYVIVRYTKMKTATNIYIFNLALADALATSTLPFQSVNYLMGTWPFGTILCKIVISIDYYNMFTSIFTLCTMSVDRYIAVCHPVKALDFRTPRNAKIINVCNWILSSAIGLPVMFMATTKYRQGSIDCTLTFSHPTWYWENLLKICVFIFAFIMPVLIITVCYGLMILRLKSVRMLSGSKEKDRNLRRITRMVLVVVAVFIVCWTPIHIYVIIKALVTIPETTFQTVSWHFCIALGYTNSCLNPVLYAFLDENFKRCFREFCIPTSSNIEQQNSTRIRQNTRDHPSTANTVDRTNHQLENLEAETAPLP
Sequence of Glucose-6-phosphate 1-dehydrogenase (P11413 whole entry): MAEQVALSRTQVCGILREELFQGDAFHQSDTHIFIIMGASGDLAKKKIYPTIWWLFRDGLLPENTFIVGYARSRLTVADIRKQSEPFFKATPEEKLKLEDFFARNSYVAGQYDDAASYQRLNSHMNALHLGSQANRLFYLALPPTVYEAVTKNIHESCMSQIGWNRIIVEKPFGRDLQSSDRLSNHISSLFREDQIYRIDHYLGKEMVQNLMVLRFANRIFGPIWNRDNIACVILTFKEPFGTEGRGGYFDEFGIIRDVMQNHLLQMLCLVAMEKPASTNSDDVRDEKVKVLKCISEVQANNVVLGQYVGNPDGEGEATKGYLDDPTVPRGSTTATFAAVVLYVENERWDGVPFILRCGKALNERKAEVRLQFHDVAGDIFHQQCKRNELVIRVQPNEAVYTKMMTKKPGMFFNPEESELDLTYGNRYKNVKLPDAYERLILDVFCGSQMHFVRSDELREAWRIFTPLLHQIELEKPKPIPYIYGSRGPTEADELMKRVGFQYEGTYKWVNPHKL

COc1ccc(Cl)cc1Nc1nc(-c2sc(NC(=O)CC(C)C)nc2C)cs1
IC50 [1]: 14.8 µM (active) | IC50 [2]: > 66.6 µM (inactive)

O=C(CCN1CCN(c2ccccc2F)CC1)Nc1ccc2c(c1)OCO2
EC50 [3]: > 120 µM (not active) | EC50 (Mu-type opioid receptor): 92.5 µM (inactive) | EC50 [4]: > 120 µM (not active) | EC50 [5]: 76.1 µM (inactive) | EC50 [6]: > 120 µM (not active)

Cn1c(O)c(N=Nc2nc(-c3ccccc3)cs2)c2ccccc21
EC50 [7]: 3.21 µM (active) | IC50 [8]: > 40 µM (not active) | EC50 (Streptokinase A): 7.09 µM (active) | EC50 (Beta-galactosidase): > 40 µM (inactive) | EC50 (Streptococcus): > 150 µM (not active)

COc1ccc2c(c1)c(C(=O)CN1CCC3(CC1)OCCO3)c(C)n2Cc1ccccc1
AC50 [9]: 3.41 µM (active)

CC1(C)Nc2ccc(O)cc2-c2c1ssc2=S
IC50 [10]: > 80 µM (inactive) | IC50 (Large T antigen): > 100 µM (active) | AC50 [11]: 9 µM (active) | EC50 (Protein RecA): 0.998 µM (active)

COc1ccccc1NC(=O)N[C@@H]1CC[C@H](CCn2cc(-c3cccnc3)nn2)O[C@H]1CO
AC50 [9]: 2.59 µM (active)
